Source: publication PMC12675575, “A BRET biosensor for measuring uncompetitive engagement of PRMT5 complexes in cells” (Nature Communications, 2025)
“And” between values parts separate entries of the source, which are not always exact repeats. Identical values can stand only once.

Tests used:
Format in all cases: cell-based
NL-PRMT5 = target: T1, NL-PRMT5 (Homo sapiens, UniProt O14744); assay: CBH-002 affinity curve, HEK293, NL-PRMT5 fusion with empty carrier DNA (no WDR77); parameters: unit not given here; settings: Figure S2A NL-PRMT5, log([CBH-002])
T1 construct: host or cells: HEK293
T1 sequence (O14744 whole entry, the tested form may be a part): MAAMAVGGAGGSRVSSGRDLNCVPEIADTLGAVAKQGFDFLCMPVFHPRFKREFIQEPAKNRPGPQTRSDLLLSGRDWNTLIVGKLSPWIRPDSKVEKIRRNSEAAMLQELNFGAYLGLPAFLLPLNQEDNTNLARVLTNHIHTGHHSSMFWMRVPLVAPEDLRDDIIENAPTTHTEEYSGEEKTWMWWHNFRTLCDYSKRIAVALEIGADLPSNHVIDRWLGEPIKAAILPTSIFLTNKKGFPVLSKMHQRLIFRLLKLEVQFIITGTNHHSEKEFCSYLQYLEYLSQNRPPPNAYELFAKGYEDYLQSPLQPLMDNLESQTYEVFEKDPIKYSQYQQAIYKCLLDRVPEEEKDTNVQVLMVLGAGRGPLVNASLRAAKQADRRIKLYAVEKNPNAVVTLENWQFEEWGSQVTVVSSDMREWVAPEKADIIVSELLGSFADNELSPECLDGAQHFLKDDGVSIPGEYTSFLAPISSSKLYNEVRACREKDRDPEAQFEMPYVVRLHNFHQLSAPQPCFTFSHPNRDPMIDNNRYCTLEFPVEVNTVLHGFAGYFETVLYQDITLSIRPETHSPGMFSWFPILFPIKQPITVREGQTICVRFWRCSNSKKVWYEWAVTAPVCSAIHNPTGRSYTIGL
Experimental: (§1) HEK293 cells (ATCC) were cultured in DMEM (Thermo Fisher) + 10% (v/v) FBS (Seredigm), and HCT116 cells (Horizon Discovery, #PAR-034 and #R02-033) were cultured in McCoy’s 5A (Thermo Fisher) + 10% FBS, with incubation in a humidified, 37 °C/5% CO2 incubator. Cells were split 1–3 days prior to performing experiments and used at roughly 80% confluency. […] Cells were transfected according to the manufacturer’s protocol using FuGENE HD (Promega). NanoLuc fusion DNA was diluted into Transfection Carrier DNA (Promega) in Opti-MEM at a ratio of 1:9 (mass/mass), and FuGENE HD was added at a ratio of 1:3 (μg DNA:μL lipid). For experiments using WDR77, untagged WDR77 DNA (Promega) was used in place of Carrier DNA. Formed complexes were combined with cells resuspended to a density of 2 × 10^5 cells/mL in Opti-MEM + 1% FBS at a ratio of 1:20 (vol:vol). Cells were plated into a flask and incubated at 37 °C in a humidified 5% CO2 atmosphere for 18–24 h, before being lifted and seeded into 96-well non-binding surface-treated plates (Corning). Cells were seeded at a density of 2 × 10^5 cells/mL in Opti-MEM + 1% FBS in 100 μL (96-well). The BRET probe CBH-002 was prepared first as a 100× stock in 100% DMSO (Sigma) and then diluted to a 20× stock in NanoBRET Tracer Dilution buffer (Promega). Test compounds were prepared as 1000× stocks in 100% DMSO and diluted to 10× stocks in Opti-MEM to prepare working stocks. […] NanoBRET Complete 3x Substrate was prepared by combining Nano-Glo Substrate and Extracellular NanoLuc Inhibitor in Opti-MEM, according to the manufacturer’s protocol (Promega). NanoBRET Complete 3× Substrate was added to cells and plates were measured on either a PheraSTAR FSX equipped with 450 nm (donor) and 610 nm (acceptor) filters, or a GloMAX Discover equipped with 450/8 nm BP (donor) and 600 nm LP (acceptor) filters, using a 0.3 s integration time.
(§2) EC50 values were obtained by fitting the BRET probe and compound affinity curves to a sigmoidal four-parameter fit model in Graphpad Prism:1 Y=Ymin+Ymax−Ymin/1+10^LogEC50−Xh where h is the Hill Slope.

BRD9 = target: T2, BRD9 (Homo sapiens, UniProt Q9H8M2); assay: CBH-002 affinity curve, HEK293, NL-BRD9 fusion (nuclear control); parameters: BRET, CBH-002 + DMSO / BRET, CBH-002 + GSK3326595: unit not given here; settings: for BRET, CBH-002 + DMSO / BRET, CBH-002 + GSK3326595: Figure S2F NL-BRD9, log([CBH-002])
T2 construct: host or cells: HEK293
T2 sequence (Q9H8M2 1-597): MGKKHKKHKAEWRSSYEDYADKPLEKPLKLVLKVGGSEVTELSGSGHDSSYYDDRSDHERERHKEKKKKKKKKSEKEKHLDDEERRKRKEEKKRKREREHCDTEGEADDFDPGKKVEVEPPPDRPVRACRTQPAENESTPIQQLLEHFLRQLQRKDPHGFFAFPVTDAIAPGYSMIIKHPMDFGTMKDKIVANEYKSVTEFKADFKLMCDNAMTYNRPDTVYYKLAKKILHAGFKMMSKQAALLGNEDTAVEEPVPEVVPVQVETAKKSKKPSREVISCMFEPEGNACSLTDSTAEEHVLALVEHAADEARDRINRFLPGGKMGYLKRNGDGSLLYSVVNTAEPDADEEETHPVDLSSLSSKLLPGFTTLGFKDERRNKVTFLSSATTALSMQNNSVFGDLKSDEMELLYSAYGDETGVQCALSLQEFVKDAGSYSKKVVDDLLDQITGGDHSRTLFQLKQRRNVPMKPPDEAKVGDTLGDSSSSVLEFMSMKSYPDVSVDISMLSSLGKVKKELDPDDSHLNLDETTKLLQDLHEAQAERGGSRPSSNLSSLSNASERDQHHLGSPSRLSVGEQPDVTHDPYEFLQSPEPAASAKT
Experimental: as §1, §2

PRMT5-NL = target: T3, PRMT5-NL (Homo sapiens, UniProt O14744); assay: CBH-002 affinity curve, HEK293, PRMT5-NL fusion with empty carrier DNA (no WDR77); parameters: unit not given here; settings: Figure S2B NL-PRMT5, log([CBH-002])
T3 construct: host or cells: HEK293
T3 sequence (O14744 whole entry, the tested form may be a part): as the sequence (O14744 whole entry, the tested form may be a part) above
Experimental: as §1, §2

## O=C(CCc1ccc2n1[B-](F)(F)[N+]1=C(c3ccc[nH]3)C=CC1=C2)NCCCCC(=O)N1CCC(Nc2cc(C(=O)NC[C@H](O)CN3CCc4ccccc4C3)ncn2)CC1 [CBH-002]
NL-PRMT5; uM 0.04576
  BRET, CBH-002 + DMSO: 20.5721 and 25.8738 and 18.388
  BRET, CBH-002 + GSK3326595: 1.809 and 2.429 and 2.181
NL-PRMT5; uM 0.52288
  BRET, CBH-002 + DMSO: 24.1037 and 25.1393 and 24.5832
  BRET, CBH-002 + GSK3326595: 4.538 and 4.814 and 4.399
NL-PRMT5; uM 1
  BRET, CBH-002 + DMSO: 34.4603 and 46.2115 and 36.0512
  BRET, CBH-002 + GSK3326595: 12.5442 and 11.3355 and 11.5115
NL-PRMT5; uM -0.43136
  BRET, CBH-002 + DMSO: 17.1332 and 19.3006 and 16.5836
  BRET, CBH-002 + GSK3326595: 1.767 and 1.79 and 1.327
NL-PRMT5; uM -0.90849
  BRET, CBH-002 + DMSO: 13.1405 and 15.4187 and 12.8329
  BRET, CBH-002 + GSK3326595: 0.7756 and 0.9895 and 1.006
NL-PRMT5; uM -1.20952
  BRET, CBH-002 + DMSO: 13.3172 and 13.6477 and 14.1021
  BRET, CBH-002 + GSK3326595: 0.6778 and 0.9377 and 0.9652
NL-PRMT5; uM -1.68664
  BRET, CBH-002 + DMSO: 10.4832 and 12.4293 and 10.2869
  BRET, CBH-002 + GSK3326595: 1.144 and 1.071 and 1
NL-PRMT5; uM -1.98767
  BRET, CBH-002 + DMSO: 7.5477 and 8.773 and 6.804
  BRET, CBH-002 + GSK3326595: 0.4652 and 0.5599 and 0.5695
NL-PRMT5; uM -2.46479
  BRET, CBH-002 + DMSO: 4.066 and 4.851 and 4.778
NL-PRMT5; uM -2.94191
  BRET, CBH-002 + DMSO: 2.639 and 2.5785 and 2.4252
BRD9; uM 0.04576
  BRET, CBH-002 + DMSO: 1.963 and 1.6096 and 1.753
  BRET, CBH-002 + GSK3326595: 1.941 and 1.894 and 1.502
BRD9; uM 0.52288
  BRET, CBH-002 + DMSO: 4.746 and 4.673 and 4.368
  BRET, CBH-002 + GSK3326595: 4.553 and 4.659 and 4.5888
BRD9; uM 1
  BRET, CBH-002 + DMSO: 11.9924 and 12.071 and 11.0213
  BRET, CBH-002 + GSK3326595: 12.0831 and 11.2046 and 11.118
BRD9; uM -0.43136
  BRET, CBH-002 + DMSO: 0.6619 and 0.5821 and 0.5347
  BRET, CBH-002 + GSK3326595: 0.7878 and 0.6009 and 0.5811
BRD9; HEK293, NL-BRD9
  CBH-002 engagement at BRD9 (printed BDR9): did not show engagement
PRMT5-NL; uM -1.03342
  BRET, CBH-002 + DMSO: 12.5404 and 13.4407 and 13.3166
  BRET, CBH-002 + GSK3326595: 8.441 and 8.865 and 8.461
PRMT5-NL; uM -1.51055
  BRET, CBH-002 + DMSO: 10.7353 and 11.0633 and 11.2052
  BRET, CBH-002 + GSK3326595: 5.349 and 5.866 and 6.032
PRMT5-NL; uM -1.98767
  BRET, CBH-002 + DMSO: 8.8779 and 8.604 and 8.921
  BRET, CBH-002 + GSK3326595: 5.328 and 5.307 and 5.5055
PRMT5-NL; uM -2.46479
  BRET, CBH-002 + DMSO: 7.2471 and 8.258 and 8.573
  BRET, CBH-002 + GSK3326595: 3.609 and 3.848 and 3.767
PRMT5-NL; uM -2.94191
  BRET, CBH-002 + DMSO: 6.802 and 7.308 and 6.803
  BRET, CBH-002 + GSK3326595: 2.864 and 2.956 and 2.6211
PRMT5-NL; uM -3.41903
  BRET, CBH-002 + DMSO: 6.051 and 5.88 and 6.095
  BRET, CBH-002 + GSK3326595: 2.538 and 2.522 and 2.796
PRMT5-NL; uM -3.89615
  BRET, CBH-002 + DMSO: 5.285 and 4.8415 and 5.242
  BRET, CBH-002 + GSK3326595: 2.512 and 2.541 and 2.599
